Biological target: human MRGPRD (Homo sapiens, UniProt Q8TDS7)
Test: MRGPRD antagonist activity, IP-One HTRF assay in CHO cells stably expressing human MRGPRD (versus 100 μM β-Alanine agonist)
Assay type: cell-based
Method in brief: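 IP-1 HTRF read-out, with IC50 from HTRF ratio curves and percent antagonism relative to maximal efficacy (mean, SEM). Antagonists and agonist were co-incubated 1 h at 37 °C plus 1 h at room temperature on overnight-plated MRGPRD-CHO cells in LiCl-containing Tris buffer, pH 8.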

Sequence of human MRGPRD (Q8TDS7 whole entry): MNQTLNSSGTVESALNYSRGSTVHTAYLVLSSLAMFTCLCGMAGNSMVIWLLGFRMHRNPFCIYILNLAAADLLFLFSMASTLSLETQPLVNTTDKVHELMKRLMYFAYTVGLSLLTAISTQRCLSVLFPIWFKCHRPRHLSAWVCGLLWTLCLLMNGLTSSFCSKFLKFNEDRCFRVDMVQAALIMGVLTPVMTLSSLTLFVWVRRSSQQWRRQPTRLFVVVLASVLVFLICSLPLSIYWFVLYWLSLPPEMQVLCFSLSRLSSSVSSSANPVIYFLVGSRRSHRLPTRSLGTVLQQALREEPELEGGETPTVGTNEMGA

Structure (SMILES) | IC50
CCc1ccc(C2(NC(=O)c3nnn(-c4ccc(-c5c(C)nn6cccnc56)cc4)c3C3CC3)CC2)cn1 [Compound 10-8] | 1 to 3 µM
CCn1cc(CNC(=O)c2nnn(-c3ccc(-c4c(C)nn(-c5ccccc5)c4C)cc3)c2C2CC2)cn1 [Compound 10-9] | < 0.1 µM
Cc1cc(NC(=O)c2nnn(-c3ccc(-c4c(C)nn(C)c4C)cc3)c2C(C)C)ccn1 [Compound 10-10] | < 0.1 µM
CCn1cc(CNC(=O)c2nnn(-c3ccc(-c4c(C)nn5ccccc45)cc3)c2C(C)C)cn1 [Compound 10-11] | < 0.1 µM
Cc1cc(NC(=O)c2nnn(-c3ccc(-c4c(C)nn5ccccc45)cc3)c2C(C)C)ccn1 [Compound 10-12] | 0.1 to 0.5 µM
Cc1nn(C)c(C)c1-c1ccc(-n2nnc(C(=O)Nc3ccncc3)c2C2CC2)nc1 [Compound 11-1, 5-cyclopropyl-N-(pyridin-4-yl)-1-(5-(1,3,5-trimethyl-1H-pyrazol-4-yl)pyridin-2-yl)-1H-1,2,3-triazole-4-carboxamide] | 0.1 to 0.5 µM
Cc1cc(NC(=O)c2nnn(-c3ccc(-c4ccc(C#N)cc4)cn3)c2C2CC2)ccn1 [Compound 11-2] | 0.1 to 0.5 µM
Cc1cc(NC(=O)c2nnn(C3CC=C(c4c(C)nn(C)c4C)CC3)c2C2CC2)ccn1 (stereo not shown) [Compound 12-1, 5-cyclopropyl-N-(2-methylpyridin-4-yl)-1-(4-(1,3,5-trimethyl-1H-pyrazol-4-yl)cyclohex-3-en-1-yl)-1H-1,2,3-triazole-4-carboxamide] | 0.1 to 0.5 µM
Cc1n[nH]c2ncnc(NC(=O)c3nnn(C4CC=C(c5ccc(C#N)cc5)CC4)c3C3CC3)c12 (stereo not shown) [Compound 12-2] | 0.1 to 0.5 µM
Cc1cc(NC(=O)c2nnn(C3CC=C(c4c(C)nn(-c5ccccc5)c4C)CC3)c2C2CC2)ccn1 (stereo not shown) [Compound 12-3] | 0.5 to 1 µM
Cc1cc(NC(=O)c2nnn(C3CC=C(c4ccc(F)cc4)CC3)c2C2CC2)ccn1 (stereo not shown) [Compound 12-4] | 0.5 to 1 µM
Cc1cc(NC(=O)c2nnn(C3CC=C(c4c(C)nn5ccccc45)CC3)c2C2CC2)ccn1 (stereo not shown) [Compound 12-5] | 0.5 to 1 µM
Cn1cc(C2(NC(=O)c3nnn(C4CC=C(c5ccc(C#N)cc5)CC4)c3C3CC3)CC2)cn1 (stereo not shown) [Compound 12-6] | 1 to 3 µM
Cc1cc(NC(=O)c2nnn(C3CC=C(c4ccc(CC#N)cc4)CC3)c2C2CC2)ccn1 (stereo not shown) [Compound 12-7] | 1 to 3 µM
CCn1cc(CNC(=O)c2nnn(C3CC=C(c4ccc(C#N)cc4)CC3)c2C2CC2)cn1 (stereo not shown) [Compound 12-8] | 1 to 3 µM
N#Cc1ccc(C2=CCC(n3nnc(C(=O)NC4(c5cccnc5)CC4)c3C3CC3)CC2)cc1 (stereo not shown) [Compound 12-9] | 1 to 3 µM
Cc1cc(NC(=O)c2nnn(C3CCC(c4c(C)nn(C)c4C)CC3)c2C2CC2)ccn1 (stereo not shown) [Compound 13-1, 5-cyclopropyl-N-(2-methylpyridin-4-yl)-1-(4-(1,3,5-trimethyl-1H-pyrazol-4-yl)cyclohexyl)-1H-1,2,3-triazole-4-carboxamide] | 1 to 3 µM

Next, values leading:

IC50 | Structure (SMILES)
> 3 µM | COc1ccccc1CCNC(=O)c1nnn(-c2ccc(-c3ccccc3)cc2)c1C1CC1 [Compound 14-1]
> 3 µM | CC(C)(C)n1cc(NC(=O)c2nnn(-c3ccc(-c4ccccc4)cc3)c2C2CC2)cn1 [Compound 14-2]
> 3 µM | CC(NC(=O)c1nnn(-c2ccc(-c3ccccc3)cc2)c1C1CC1)c1nccs1 (stereo not shown) [Compound 14-3]
> 3 µM | Cc1nn(C(=O)c2nnn(-c3ccc(-c4ccccc4)cc3)c2C2CC2)c2cccc(N)c12 [Compound 14-4]
> 3 µM | Cc1[nH]ncc1CNC(=O)c1nnn(-c2ccc(-c3ccccc3)cc2)c1C1CC1 [Compound 14-5]
> 3 µM | O=C(NC1(c2ccccc2)CCC1)c1nnn(-c2ccc(-c3ccccc3)cc2)c1C1CC1 [Compound 14-6]
> 3 µM | O=C(NCC1CCCO1)c1nnn(-c2ccc(-c3ccccc3)cc2)c1C1CC1 (stereo not shown) [Compound 14-7]
> 3 µM | CC(NC(=O)c1nnn(-c2ccc(-c3ccccc3)cc2)c1C1CC1)c1cncnc1 (stereo not shown) [Compound 14-8]
> 3 µM | O=C(NCCc1ncn[nH]1)c1nnn(-c2ccc(-c3ccccc3)cc2)c1C1CC1 [Compound 14-9]
> 3 µM | Cn1ncc(NC(=O)c2nnn(-c3ccc(-c4ccccc4)cc3)c2C2CC2)c1Cl [Compound 14-10]
> 3 µM | O=C(NCc1cscn1)c1nnn(-c2ccc(-c3ccccc3)cc2)c1C1CC1 [Compound 14-11]
> 3 µM | CCn1nc(C)cc1NC(=O)c1nnn(-c2ccc(-c3ccccc3)cc2)c1C1CC1 [Compound 14-12]
> 3 µM | Cc1nc(C(C)NC(=O)c2nnn(-c3ccc(-c4ccccc4)cc3)c2C2CC2)cs1 (stereo not shown) [Compound 14-13]
> 3 µM | Cc1nn(C)c2ncnc(NC(=O)c3nnn(-c4ccc(-c5ccccc5)cc4)c3C3CC3)c12 [Compound 14-14]
0.1 to 0.5 µM | CCc1cc(NC(=O)c2nnn(-c3ccc(-c4ccccc4)cc3)c2C2CC2)ccn1 [Compound 14-15, 1-([1,1′-biphenyl]-4-yl)-5-cyclopropyl-N-(2-ethylpyridin-4-yl)-1H-1,2,3-triazole-4-carboxamide]
0.1 to 0.5 µM | CC(C)c1cc(NC(=O)c2nnn(-c3ccc(-c4ccccc4)cc3)c2C2CC2)ccn1 [Compound 14-16, 1-([1,1′-biphenyl]-4-yl)-5-cyclopropyl-N-(2-isopropylpyridin-4-yl)-1H-1,2,3-triazole-4-carboxamide]

IC50 | Structure (SMILES)
0.1 to 0.5 µM | Cn1ncc2c1CN(C(=O)c1nnn(-c3ccc(-c4ccccc4)cc3)c1C1CC1)C2 [Compound 14-17]
0.1 to 0.5 µM | C#Cc1cc(NC(=O)c2nnn(-c3ccc(-c4ccccc4)cc3)c2C2CC2)ccn1 [Compound 14-18]
0.5 to 1 µM | CS(=O)(=O)Nc1ccc(NC(=O)c2nnn(-c3ccc(-c4ccccc4)cc3)c2C2CC2)cc1 [Compound 14-19]
0.5 to 1 µM | Cc1ccc(CNC(=O)c2nnn(-c3ccc(-c4ccccc4)cc3)c2C2CC2)cn1 [Compound 14-20]
0.5 to 1 µM | Cc1csc(CNC(=O)c2nnn(-c3ccc(-c4ccccc4)cc3)c2C2CC2)n1 [Compound 14-21]
0.5 to 1 µM | O=C(Nc1ccnc(C(F)F)c1)c1nnn(-c2ccc(-c3ccccc3)cc2)c1C1CC1 [Compound 14-22]
0.5 to 1 µM | COc1cc(NC(=O)c2nnn(-c3ccc(-c4ccccc4)cc3)c2C2CC2)cc(C)n1 [Compound 14-23]
0.5 to 1 µM | O=C(Nc1cccc(-n2cncn2)c1)c1nnn(-c2ccc(-c3ccccc3)cc2)c1C1CC1 [Compound 14-24]
0.5 to 1 µM | Cc1n[nH]c2ncnc(NC(=O)c3nnn(-c4ccc(-c5ccccc5)cc4)c3C3CC3)c12 [Compound 14-25]
0.5 to 1 µM | N#Cc1cc(NC(=O)c2nnn(-c3ccc(-c4ccccc4)cc3)c2C2CC2)ccn1 [Compound 14-26]
0.5 to 1 µM | CCn1cc(C(C)NC(=O)c2nnn(-c3ccc(-c4ccccc4)cc3)c2C2CC2)cn1 (stereo not shown) [Compound 14-27]
1 to 3 µM | C[C@H](NC(=O)c1nnn(-c2ccc(-c3ccccc3)cc2)c1C1CC1)c1ccc(Cl)cc1 [Compound 14-28]
1 to 3 µM | O=C(Nc1ccnc2[nH]ncc12)c1nnn(-c2ccc(-c3ccccc3)cc2)c1C1CC1 [Compound 14-29]
1 to 3 µM | O=C(NC1CCSCC1)c1nnn(-c2ccc(-c3ccccc3)cc2)c1C1CC1 [Compound 14-30]
1 to 3 µM | CCn1cc(CNC(=O)c2nnn(-c3ccc(-c4ccccc4)cc3)c2C2CC2)cn1 [Compound 14-31]
1 to 3 µM | CC(C)n1cc(CNC(=O)c2nnn(-c3ccc(-c4ccccc4)cc3)c2C2CC2)cn1 [Compound 14-32]
